From patent US7094420B2, “Methods of using isomer enriched conjugated linoleic acid compositions” (Natural ASA, priority 1998, dated 2006)

Assay: Mouse feeding trial of diets with different ratios and amounts of CLA isomers
Assay type: in vivo, ICR mice
Description: Based on the results of Example 1, the Inventors believe that the t10,c12 isomer is an active isomer.
The trial was conducted with 84 ICR mice purchased from Harlan Sprague Dawley (Madison, Wis.). The diets were blended using the basal diet, sugar, corn oil and one or a blend of isomers of conjugated linoleic acid (expressed as percent of diet). Each treatment consisted of 2 pens of 3 mice. Mice had food and water ad libitum. Food consumption was monitored daily and mice were weighed every other day when bedding was changed. At three weeks of feeding the diet, mice were euthanized by CO2 and final body weights were taken. Mice were then necropsied and fat pads were weighed. Mice were also analyzed for total body fat. Mice were freeze dried and ground. Duplicate samples were analyzed by proximate analysis (ether extraction, ash, kjeldahl, and moisture).

SMILES	improvement in growth (mice fed only c9,t11 CLA, no t10,c12 present, linear) [%]	growth, rate of gain, and feed conversion (mice receiving only c9,t11 CLA)	body fat compared to control mice (mice fed only t10,c12 CLA vs control mice not receiving CLA)	reduction in growth (mice fed t10,c12 isomer only) [%]
CCCCCC/C=C/C=C\CCCCCCCC(=O)O [c9,t11 CLA, c9,t11 octadecadienoic acid]	16	increased growth, rate of gain, and feed conversion		
CCCCC/C=C\C=C\CCCCCCCCC(=O)O [t10,c12 CLA, t10,c12 octadecadienoic acid]			reduced body fat	10
